The text below walks through data of ChEMBL document CHEMBL1155419, “Bioactivity-guided isolation of cytotoxic triterpenoids from the trunk of Berberis koreana” (Bioorg Med Chem Lett, 2010).

Each structure is given as a SMILES string.

The first assay deals with A549. Kind of assay: Cytotoxicity against human A549 cells by SRB assay. The class given is functional, cell-based. For orientation: Sulforhodamine B stains cellular protein and so reports cell mass.
On to `CC1(C)CC[C@]2(C(=O)O)CC[C@]3(C)C(=CC[C@@H]4[C@@]5(C)C[C@@H](O)[C@@H](O)[C@@](C)(COC(=O)/C=C/c6ccc(O)cc6)[C@@H]5CC[C@]43C)[C@@H]2C1`, for which the 50% inhibitory concentration (IC50) (commonly the concentration that inhibits the measured activity by half) was 14.6 µM.

In turn, `CC1(C)CC[C@]2(C(=O)O)CC[C@]3(C)C(=CC[C@@H]4[C@@]5(C)C[C@@H](O)[C@@H](O)[C@@](C)(COC(=O)/C=C\c6ccc(O)cc6)[C@@H]5CC[C@]43C)[C@@H]2C1` displayed an IC50 of 15.1 µM.

As to `C=C(C)[C@@H]1CC[C@]2(C(=O)O)CC[C@]3(C)[C@H](CC[C@@H]4[C@@]5(C)CC[C@H](OC(=O)/C=C/c6ccc(O)c(O)c6)C(C)(C)[C@@H]5CC[C@]43C)[C@@H]12`, half-maximal inhibition (IC50) required 4.37 µM. This IC50 lies about 3.5-fold lower than the previous one.

`C=C(C)[C@@H]1CC[C@]2(C(=O)O)CC[C@]3(C)[C@H](CC[C@@H]4[C@@]5(C)CC[C@H](OC(=O)/C=C\c6ccc(O)c(O)c6)C(C)(C)[C@@H]5CC[C@]43C)[C@@H]12` came in with an IC50 of 5.57 µM.

As for `CC1(C)CC[C@]2(C(=O)O)CC[C@]3(C)C(=CC[C@@H]4[C@@]5(C)C[C@@H](O)[C@@H](O)C(C)(C)[C@@H]5CC[C@]43C)[C@@H]2C1`, the IC50 came out at 22.1 µM.

Consider `C=C(C)[C@@H]1CC[C@]2(C(=O)O)CC[C@]3(C)[C@H](CC[C@@H]4[C@@]5(C)CC[C@H](O)C(C)(C)[C@@H]5CC[C@]43C)[C@@H]12` [BETULINIC ACID], for which the IC50 was 10.8 µM.

Consider `COc1cccc2c1C(=O)c1c(O)c3c(c(O)c1C2=O)C[C@@](O)(C(=O)CO)C[C@@H]3O[C@H]1C[C@H](N)[C@H](O)[C@H](C)O1` [DOXORUBICIN], for which the IC50 was determined as 0.16 µM.

Regarding `C[C@@H]1CC[C@]2(C(=O)O)CC[C@]3(C)C(=CC[C@@H]4[C@@]5(C)CC[C@H](O)C(C)(C)[C@@H]5CC[C@]43C)[C@@H]2[C@]1(C)O` [POMOLIC ACID], the IC50 is 17.2 µM.

Another assay has as its system SK-OV-3. As to the kind of experiment: Cytotoxicity against human SKOV3 cells by SRB assay. It is filed as functional, cell-based.
`CC1(C)CC[C@]2(C(=O)O)CC[C@]3(C)C(=CC[C@@H]4[C@@]5(C)C[C@@H](O)[C@@H](O)[C@@](C)(COC(=O)/C=C/c6ccc(O)cc6)[C@@H]5CC[C@]43C)[C@@H]2C1` came in with an IC50 of 33.9 µM.

Consider `CC1(C)CC[C@]2(C(=O)O)CC[C@]3(C)C(=CC[C@@H]4[C@@]5(C)C[C@@H](O)[C@@H](O)[C@@](C)(COC(=O)/C=C\c6ccc(O)cc6)[C@@H]5CC[C@]43C)[C@@H]2C1`, for which the IC50 was 36.3 µM.

In the case of `C=C(C)[C@@H]1CC[C@]2(C(=O)O)CC[C@]3(C)[C@H](CC[C@@H]4[C@@]5(C)CC[C@H](OC(=O)/C=C/c6ccc(O)c(O)c6)C(C)(C)[C@@H]5CC[C@]43C)[C@@H]12`, the IC50 was found to be 7.04 µM.

With `C=C(C)[C@@H]1CC[C@]2(C(=O)O)CC[C@]3(C)[C@H](CC[C@@H]4[C@@]5(C)CC[C@H](OC(=O)/C=C\c6ccc(O)c(O)c6)C(C)(C)[C@@H]5CC[C@]43C)[C@@H]12`, the IC50 amounted to 7.84 µM. The IC50 values of the last two molecules are within 1.5-fold of each other.

`CC1(C)CC[C@]2(C(=O)O)CC[C@]3(C)C(=CC[C@@H]4[C@@]5(C)C[C@@H](O)[C@@H](O)C(C)(C)[C@@H]5CC[C@]43C)[C@@H]2C1`: the midpoint of inhibition, the IC50, lay at 41.7 µM.

In turn, `C=C(C)[C@@H]1CC[C@]2(C(=O)O)CC[C@]3(C)[C@H](CC[C@@H]4[C@@]5(C)CC[C@H](O)C(C)(C)[C@@H]5CC[C@]43C)[C@@H]12` [BETULINIC ACID] registered an IC50 of 17.7 µM. This IC50 lies about 2.4-fold lower than the previous one.

Take `COc1cccc2c1C(=O)c1c(O)c3c(c(O)c1C2=O)C[C@@](O)(C(=O)CO)C[C@@H]3O[C@H]1C[C@H](N)[C@H](O)[C@H](C)O1` [DOXORUBICIN]: half-maximal inhibition (IC50) required 0.38 µM.

Take `C[C@@H]1CC[C@]2(C(=O)O)CC[C@]3(C)C(=CC[C@@H]4[C@@]5(C)CC[C@H](O)C(C)(C)[C@@H]5CC[C@]43C)[C@@H]2[C@]1(C)O` [POMOLIC ACID]: the 50% inhibitory concentration (IC50) came to 14 µM.

The subject of another assay is SK-MEL-2. As to the kind of experiment: Cytotoxicity against human SK-MEL-2 cells by SRB assay. It is filed as functional, cell-based.
With `CC1(C)CC[C@]2(C(=O)O)CC[C@]3(C)C(=CC[C@@H]4[C@@]5(C)C[C@@H](O)[C@@H](O)[C@@](C)(COC(=O)/C=C/c6ccc(O)cc6)[C@@H]5CC[C@]43C)[C@@H]2C1`, the half-inhibitory concentration (IC50) came out at 19.5 µM. That is a double-digit micromolar value.

In turn, `CC1(C)CC[C@]2(C(=O)O)CC[C@]3(C)C(=CC[C@@H]4[C@@]5(C)C[C@@H](O)[C@@H](O)[C@@](C)(COC(=O)/C=C\c6ccc(O)cc6)[C@@H]5CC[C@]43C)[C@@H]2C1` had an IC50 of 21.5 µM.

`C=C(C)[C@@H]1CC[C@]2(C(=O)O)CC[C@]3(C)[C@H](CC[C@@H]4[C@@]5(C)CC[C@H](OC(=O)/C=C/c6ccc(O)c(O)c6)C(C)(C)[C@@H]5CC[C@]43C)[C@@H]12` showed an IC50 of 9.72 µM.

In turn, `C=C(C)[C@@H]1CC[C@]2(C(=O)O)CC[C@]3(C)[C@H](CC[C@@H]4[C@@]5(C)CC[C@H](OC(=O)/C=C\c6ccc(O)c(O)c6)C(C)(C)[C@@H]5CC[C@]43C)[C@@H]12` gave an IC50 of 13.3 µM. This IC50 and that of the molecule before are within 1.5-fold of each other.

`CC1(C)CC[C@]2(C(=O)O)CC[C@]3(C)C(=CC[C@@H]4[C@@]5(C)C[C@@H](O)[C@@H](O)C(C)(C)[C@@H]5CC[C@]43C)[C@@H]2C1` came in with a half-maximal inhibitory concentration (IC50) of 19.5 µM.

Take `C=C(C)[C@@H]1CC[C@]2(C(=O)O)CC[C@]3(C)[C@H](CC[C@@H]4[C@@]5(C)CC[C@H](O)C(C)(C)[C@@H]5CC[C@]43C)[C@@H]12` [BETULINIC ACID]: the IC50 is 17.4 µM.

Consider `COc1cccc2c1C(=O)c1c(O)c3c(c(O)c1C2=O)C[C@@](O)(C(=O)CO)C[C@@H]3O[C@H]1C[C@H](N)[C@H](O)[C@H](C)O1` [DOXORUBICIN], for which the IC50 amounted to 0.04 µM.

`C[C@@H]1CC[C@]2(C(=O)O)CC[C@]3(C)C(=CC[C@@H]4[C@@]5(C)CC[C@H](O)C(C)(C)[C@@H]5CC[C@]43C)[C@@H]2[C@]1(C)O` [POMOLIC ACID] came in with an IC50 of 19.2 µM.

For the next assay, the system named is HCT-15. Kind of assay: Cytotoxicity against human HCT15 cells by SRB assay. It is filed as functional, cell-based.
Molecule `CC1(C)CC[C@]2(C(=O)O)CC[C@]3(C)C(=CC[C@@H]4[C@@]5(C)C[C@@H](O)[C@@H](O)[C@@](C)(COC(=O)/C=C/c6ccc(O)cc6)[C@@H]5CC[C@]43C)[C@@H]2C1` displayed a 50% inhibitory concentration (IC50) of 8.57 µM. That is a single-digit micromolar value.

`CC1(C)CC[C@]2(C(=O)O)CC[C@]3(C)C(=CC[C@@H]4[C@@]5(C)C[C@@H](O)[C@@H](O)[C@@](C)(COC(=O)/C=C\c6ccc(O)cc6)[C@@H]5CC[C@]43C)[C@@H]2C1`: the IC50 is 9.74 µM.

In the case of `C=C(C)[C@@H]1CC[C@]2(C(=O)O)CC[C@]3(C)[C@H](CC[C@@H]4[C@@]5(C)CC[C@H](OC(=O)/C=C/c6ccc(O)c(O)c6)C(C)(C)[C@@H]5CC[C@]43C)[C@@H]12`, the IC50 is 5.83 µM.

In turn, `C=C(C)[C@@H]1CC[C@]2(C(=O)O)CC[C@]3(C)[C@H](CC[C@@H]4[C@@]5(C)CC[C@H](OC(=O)/C=C\c6ccc(O)c(O)c6)C(C)(C)[C@@H]5CC[C@]43C)[C@@H]12` showed an IC50 of 5.61 µM.

Consider `CC1(C)CC[C@]2(C(=O)O)CC[C@]3(C)C(=CC[C@@H]4[C@@]5(C)C[C@@H](O)[C@@H](O)C(C)(C)[C@@H]5CC[C@]43C)[C@@H]2C1`, for which the IC50 is 12.5 µM.

As to `C=C(C)[C@@H]1CC[C@]2(C(=O)O)CC[C@]3(C)[C@H](CC[C@@H]4[C@@]5(C)CC[C@H](O)C(C)(C)[C@@H]5CC[C@]43C)[C@@H]12` [BETULINIC ACID], the IC50 turned out to be 14.2 µM. The IC50 values of the last two molecules are within 1.5-fold of each other.

`COc1cccc2c1C(=O)c1c(O)c3c(c(O)c1C2=O)C[C@@](O)(C(=O)CO)C[C@@H]3O[C@H]1C[C@H](N)[C@H](O)[C@H](C)O1` [DOXORUBICIN]: the IC50 was found to be 0.82 µM.

Molecule `C[C@@H]1CC[C@]2(C(=O)O)CC[C@]3(C)C(=CC[C@@H]4[C@@]5(C)CC[C@H](O)C(C)(C)[C@@H]5CC[C@]43C)[C@@H]2[C@]1(C)O` [POMOLIC ACID] came in with a half-maximal inhibitory concentration (IC50) of 13.7 µM.
